Source: article PMC3493566 (2012)
*1 amine or outer side, *2 acyl side, *3 side chain or, on linkers, in order; H or OH if unused. Where a SMILES comes first, the peptide text is derived from it. Bridges are numbered along the chain shown (N, C = ends). Roman numbers before positions name the chains, in order. [ ]: non-standard residue; d: D form. Actinocin(9to1) = Cc1c2oc3c(C)ccc(C(=O)[*:1])c3nc-2c(C(=O)[*:2])c(N)c1=O; NMeV = CN[C@H](C(=O)O)C(C)C; Sar = CNCC(=O)O

Key:
[1] = tested on: 5'-biotin-labeled hairpin DNA duplex (DNA, hairpin) AAAGCTTTTGTAAAGCTTT; assay: SPR (BIAcore), ka/kd; conditions: 50 mM NaCl; 20 mM Tris-HCl pH 7.3, no spermine
[2] = tested on: d(TTTGCAAA) duplex (DNA, duplex) TTTGCAAA; assay: UV melting at 260 nm; conditions: Na+ (20 mM sodium cacodylate); pH 7.3, 4 µM duplex, no spermine; ACTD concentration not stated

SMILES: Cc1c2oc3c(C)ccc(C(=O)N[C@@H]4C(=O)N[C@H](C(C)C)C(=O)N5CCC[C@H]5C(=O)N(C)CC(=O)N(C)[C@@H](C(C)C)C(=O)O[C@@H]4C)c3nc-2c(C(=O)N[C@@H]2C(=O)N[C@H](C(C)C)C(=O)N3CCC[C@H]3C(=O)N(C)CC(=O)N(C)[C@@H](C(C)C)C(=O)O[C@@H]2C)c(N)c1=O (I: T[dV]P[Sar][NMeV] / II: T[dV]P[Sar][NMeV]; ester I:1-I:C, II:1-II:C; linker I:N-II:N via Actinocin(9to1))
- Ka [1]: 2.48 ± 0.17 × 10^6 M^-1
- Tm [2]: 6.3 °C
